37 molecules from US20260256751A1, “COMBINATION OF BETA-2-ADRENERGIC RECEPTOR AGONISTS AND GLP-1 RECEPTOR AGONISTS FOR USE IN TREATING HYPERGLYCAEMIA” (ATROGI AB, priority 2023, published 2026) can be followed below.

The subject of assay [1] is differentiated L6-myotubes. Description: Glucose uptake screen (Biological example 1 of WO 2019/053427). The note with it: compound at 10 μM, activity relative to isoproterenol at 10 μM, read-out: Biological example 1 of WO 2019/053427 (GU). The format is cell-based. In outline: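 Uptake was read out as ^3H-2-deoxyglucose (50 nM, 10 min) radioactivity in NaOH lysates. Beforehand, overnight-starved, differentiated L6 myotubes received compound at 1×10^−5 M with ICI-118551 present for 1 h 40 min, followed by fresh agonist for a further 20 min in glucose-free medium.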

For assay [2], the system named is differentiated L6-myotubes. Put plainly: cAMP production relative to isoprenaline (Biological example 2 of WO 2019/053427). The format is cell-based. The note with it: 0.25 h, compound at 10 μM, activity relative to isoproterenol at 10 μM. A digest of the protocol: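 Values are cAMP levels relative to isoprenaline at equal concentration (final 1×10^−5 M for both). Stimulation lasted 15 min in differentiated L6 myotubes, using HBSS buffer (pH 7.4) containing 1 mM IBMX, 5 mM HEPES and 1% BSA.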

For `CC1(C)CC[C@H]([C@H](O)c2cncc(O)c2)N1` [Compound 167, 5-{(R)-[(R)-5,5-dimethyl-2-pyrrolidinyl]hydroxymeth-yl}-3-pyridinol], the figures for the Emax at 10 µM in assay [1] and in assay [2] were 50 to 75% and under 25%, respectively.
For `O[C@H](c1cccc(F)c1)[C@H]1CCC2(CCCC2)N1` [Compound 168], the Emax at 10 µM fell in the range of 50 to 75% in assay [1] and 25 to 50% in assay [2].
Turning to `O[C@@H](c1cccc(F)c1)[C@H]1CCC2(CCCC2)N1` [Compound 169, (S)-{(R)-1-aza-2-spiro[4.4]nonyl}(m-fluorophenyl)methanol], the Emax at 10 µM in assay [1] and in assay [2] was under 25% each time.
`O[C@H](c1cccc(F)c1)[C@H]1CCC2(CC2)N1` [Compound 170, (R)-{(R)-4-aza-5-spiro[2.4]heptyl}(m-fluorophenyl)methanol]: the values for the Emax at 10 µM in assay [1] and in assay [2] were 50 to 75% and under 25%, respectively.
Taken in the same sequence, the figures for `O[C@@H](c1cccc(F)c1)[C@H]1CCC2(CC2)N1` [Compound 171, (S)-{(R)-4-aza-5-spiro[2.4]heptyl}(m-fluorophenyl)methanol] were 25 to 50% and under 25%.
Turning to `CC1(C)CC[C@H]([C@@H](O)c2ccc(F)cc2)N1` [Compound 172, (S)-[(R)-5,5-dimethyl-2-pyrrolidinyl](p-fluorophenyl)methanol], the Emax at 10 µM in assay [1] and in assay [2] was under 25% throughout.
On to `CC1(C)CC[C@H]([C@H](O)c2ccc(F)cc2)N1` [Compound 173, (R)-[(R)-5,5-dimethyl-2-pyrrolidinyl](p-fluorophenyl)methanol], for which the Emax at 10 µM in assay [1] was 50 to 75%; in assay [2], under 25%.
Taken in the same sequence, the figures for `CC1(C)CC[C@H]([C@@H](O)c2ccccc2F)N1` [Compound 174, (S)-[(R)-5,5-dimethyl-2-pyrrolidinyl](o-fluorophenyl)methanol] were under 25% and under 25%.
Taken in the same sequence, the figures for `CC1(C)CC[C@H]([C@H](O)c2ccccc2F)N1` [Compound 175, (R)-[(R)-5,5-dimethyl-2-pyrrolidinyl](o-fluorophenyl)methanol] were over 75% and 25 to 50%.
Taken in the same sequence, the figures for `CC1(C)CCC[C@H]([C@@H](O)c2ccccc2F)N1` [Compound 176, (S)-[(R)-6,6-dimethyl-2-piperidyl](o-fluorophenyl)methanol] were over 75% and 25 to 50%.
Regarding `CC1(C)CCC[C@H]([C@H](O)c2ccccc2F)N1` [Compound 177, (R)-[(R)-6,6-dimethyl-2-piperidyl](o-fluorophenyl)methanol], the Emax at 10 µM in assay [1] is 50 to 75%; in assay [2], under 25%.
`CC12CCC([C@@H](O)c3cccc(F)c3)(CC1)N2` [Compound 178, (S)-(m-fluorophenyl)(4-methyl-7-azabicyclo[2.2.1]hept-1-yl)methanol]: the Emax at 10 µM was 25 to 50% in assay [1] and under 25% in assay [2].
Taken in the same sequence, the figures for `CC12CCC([C@H](O)c3cccc(F)c3)(CC1)N2` [Compound 179, (R)-(m-fluoropehnyl)(4-methyl-7-azabicyclo[2.2.1]hept-1-yl)methanol] were 50 to 75% and under 25%.
Taken in the same sequence, the figures for `CC12CCC([C@@H](O)c3ccccc3F)(CC1)N2` [Compound 180, (S)-(o-fluorophenyl)(4-methyl-7-azabicyclo[2.2.1]hept-1-yl)methanol] were over 75% and under 25%.
For `CC12CCC([C@H](O)c3ccccc3F)(CC1)N2` [Compound 181, (R)-(o-fluorophenyl)(4-methyl-7-azabicyclo[2.2.1]hept-1-yl)methanol], the Emax at 10 µM is over 75% in assay [1] and under 25% in assay [2].
Taken in the same sequence, the figures for `CCCC12CCC([C@@H](O)c3cccc(F)c3)(CC1)N2` [Compound 182, (S)-(m-fluorophenyl)(- propyl-7-azabicyclo[2.2.1]hept-1-yl)methanol] were under 25% and under 25%.
Taken in the same sequence, the figures for `CCCC12CCC([C@H](O)c3cccc(F)c3)(CC1)N2` [Compound 183, (R)-(m-fluorophenyl)(4-propyl-7-azabicyclo[2.2.1]hept-1-yl)methanol] were 50 to 75% and 25 to 50%.
Taken in the same sequence, the figures for `CC12CCC([C@@H](O)c3cncc(F)c3)(CC1)N2` [Compound 184, (S)-(5-fluoro-3-pyridyl)(4-methyl-7-azabicyclo[2.2.1]hept-1-yl)methanol] were 50 to 75% and under 25%.
`CC12CCC([C@H](O)c3cncc(F)c3)(CC1)N2` [Compound 185, (R)-(5-fluoro-3-pyridyl)(4-methyl-7-azabicyclo[2.2.1]hept-1-yl)methanol]: the Emax at 10 µM in assay [1] is over 75%; in assay [2], under 25%.
For the molecule `CC12CC(C1)[C@H]([C@H](O)c1cccc(F)c1)N2` [Compound 186, (R)-{(R)-1-methyl-2-azabicyclo[2.1.1]hex-3-yl}(m-fluorophenyl)methanol], the Emax at 10 µM in assay [1] was over 75%; in assay [2], 50 to 75%.
Taken in the same sequence, the figures for `CC12CC(C1)[C@H]([C@@H](O)c1cccc(F)c1)N2` [Compound 187, (S)-{(R)-1-methyl-2-azabicyclo[2.1.1]hex-3-yl}(m-fluorophenyl)methanol] were 25 to 50% and under 25%.
Take `CC12CC(C1)[C@@H]([C@H](O)c1cccc(F)c1)N2` [Compound 188, (R)-{(S)-1-methyl-2-azabicyclo[2.1.1]hex-3-yl}(m-fluorophenyl)methanol]: the Emax at 10 µM in assay [1] and in assay [2] was under 25% each time.
For the molecule `CC12CC(C1)[C@@H]([C@@H](O)c1cccc(F)c1)N2` [Compound 189, (S)-{(S)-1-methyl-2-azabicyclo[2.1.1]hex-3-yl}(m-fluorophenyl)methanol], the Emax at 10 µM was 50 to 75% in assay [1] and under 25% in assay [2].
As to `CC1(C)CCC[C@@H]([C@H](O)c2cccc(F)c2)N1` [Compound 190, (R)-[(S)-6,6-dimethyl-2-piperidyl](m-fluorophenyl)methanol], the values for the Emax at 10 µM in assay [1] and in assay [2] were over 75% and under 25%, respectively.
Taken in the same sequence, the figures for `CC1(C)CCC[C@@H]([C@@H](O)c2cccc(F)c2)N1` [Compound 191, (S)-[(S)-6,6-dimethyl-2-piperidyl](m-fluorophenyl)methanol] were 25 to 50% and under 25%.
Taken in the same sequence, the figures for `CC1(C)CCC[C@@H]([C@@H](O)c2ccccc2F)N1` [Compound 192, (S)-[(S)-6,6-dimethyl-2-piperidyl](o-fluorophenyl)methanol] were 25 to 50% and under 25%.
Take `CC1(C)CCC[C@@H]([C@H](O)c2ccccc2F)N1` [Compound 193, (R)-[(S)-6,6-dimethyl-2-piperidyl](o-fluorophenyl)methanol]: the Emax at 10 µM is over 75% in assay [1] and 25 to 50% in assay [2].
Regarding `CC12CCC([C@@H](O)c3ccccc3Cl)(CC1)N2` [Compound 194, (S)-(o-chlorophenyl)(4-methyl-7-azabicyclo[2.2.1]hept-1-yl)methanol], the Emax at 10 µM in assay [1] was over 75%; in assay [2], under 25%.
Taken in the same sequence, the figures for `CC12CCC([C@H](O)c3ccccc3Cl)(CC1)N2` [Compound 195, (R)-(o-chlorophenyl)(4-methyl-7-azabicyclo[2.2.1]hept-1-yl)methanol] were over 75% and under 25%.
For the molecule `CC12CCC([C@@H](O)c3cccc(Cl)c3)(CC1)N2` [Compound 196, (S)-(m-chlorophenyl)(4-methyl-7-azabicyclo[2.2.1]hept-1-yl)methanol], the Emax at 10 µM in assay [1] is 25 to 50%; in assay [2], under 25%.
Taken in the same sequence, the figures for `CC12CCC([C@H](O)c3cccc(Cl)c3)(CC1)N2` [Compound 197, (R)-(m-chlorophenyl)(4-methyl-7-azabicyclo[2.2.1]hept-1-yl)methanol] were over 75% and under 25%.
Taken in the same sequence, the figures for `CC1(C)C[C@H]([C@H](O)c2cccc(F)c2)N1` [Compound 198, (R)-[(R)-4,4-dimethyl-2-azetidinyl](m-fluorophenyl)methanol] were over 75% and 25 to 50%.
Take `CC1(C)C[C@@H]([C@@H](O)c2cccc(F)c2)N1` [Compound 199, (S)-[(S)-4,4-dimethyl-2-azetidinyl](m-fluorophenyl)methanol]: the Emax at 10 µM is 25 to 50% in assay [1] and under 25% in assay [2].
Taken in the same sequence, the figures for `CC1(C)C[C@@H]([C@H](O)c2cccc(F)c2)N1` [Compound 200, (R)-[(S)-4,4-dimethyl-2-azetidinyl](m-fluorophenyl)methanol] were under 25% and under 25%.
For `CC1(C)C[C@H]([C@@H](O)c2cccc(F)c2)N1` [Compound 201, (S)-[(R)-4,4-dimethyl-2-azetidinyl](m-fluorophenyl)methanol], the Emax at 10 µM in assay [1] and in assay [2] was under 25% each time.
Turning to `CC1(C)C[C@@H]([C@H](O)c2ccccc2F)N1` [Compound 202, (R)-[(S)-4,4-dimethyl-2-azetidinyl](o-fluorophenyl)methanol], the Emax at 10 µM in assay [1] and in assay [2] was under 25% in each case.
As for `CC1(C)C[C@H]([C@@H](O)c2ccccc2F)N1` [Compound 203, (S)-[(R)-4,4-dimethyl-2-azetidinyl](o-fluorophenyl)methanol], the figures for the Emax at 10 µM in assay [1] and in assay [2] were 25 to 50% and under 25%, respectively.
